From patent US8268807B2, “Compositions and method for the treatment of multiple myeloma” (SRI International, priority 2010, dated 2012) come the findings set out here.

Assay [1] relates to RPMI-8226 multiple myeloma cells. The assay can be described thus: Proliferation of RPMI-8226 multiple myeloma cells. It is filed as cell-based, human. Particulars: read-out: IC50 against RPMI-8226 proliferation. As to the method: Growth inhibition assay was performed to assess the effect of Compound (1) and antiestrogens on growth of RPMI-8226 (multiple myeloma) cells. Cells were seeded in 96-well plates at 2000 cells/well in 200 μL of medium. After 24 hours, test compounds were added to each well and control wells received vehicle only. On Day 3, viable cells were measured with the MTT assay, using an MTT kit.
The effect of Compound (1) and analogs thereof on proliferation of RPMI-8226 multiple myeloma cells was determined by standard methods.

Assay [2] can be described thus: Activity test of salts of Compound (1) (test not specified).
Assay [3] concerns the target ER-β (Homo sapiens, UniProt Q92731). The assay can be described thus: Estrogen receptor binding assay (3H-estradiol displacement), ER-β. The conditions noted are these: recombinant estrogen receptor, 10 nM 3H-estradiol, 4° C. overnight; read-out: Binding Affinity (IC50) ER-β.
The target in assay [4] is T1, ER-α (Homo sapiens, UniProt P03372).
T1 sequence (P03372 1-595): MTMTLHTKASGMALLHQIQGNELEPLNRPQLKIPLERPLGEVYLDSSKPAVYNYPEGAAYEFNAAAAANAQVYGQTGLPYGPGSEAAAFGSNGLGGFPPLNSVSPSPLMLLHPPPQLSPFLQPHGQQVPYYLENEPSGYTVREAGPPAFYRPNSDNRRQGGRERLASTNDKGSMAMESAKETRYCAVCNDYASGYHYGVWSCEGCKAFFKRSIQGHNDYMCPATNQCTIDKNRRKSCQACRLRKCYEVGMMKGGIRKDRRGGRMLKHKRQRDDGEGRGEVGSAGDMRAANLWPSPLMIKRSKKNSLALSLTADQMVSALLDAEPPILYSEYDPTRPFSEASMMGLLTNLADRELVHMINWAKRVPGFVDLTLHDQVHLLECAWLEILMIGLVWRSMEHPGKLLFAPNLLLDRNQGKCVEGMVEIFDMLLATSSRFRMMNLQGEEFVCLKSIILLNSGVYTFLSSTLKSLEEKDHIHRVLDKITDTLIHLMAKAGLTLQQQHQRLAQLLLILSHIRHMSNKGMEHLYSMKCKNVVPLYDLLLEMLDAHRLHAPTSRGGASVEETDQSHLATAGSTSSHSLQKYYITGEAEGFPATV
The assay can be described thus: Estrogen receptor binding assay (3H-estradiol displacement), ER-α. Particulars: recombinant estrogen receptor, 10 nM 3H-estradiol, 4° C. overnight; read-out: Binding Affinity (IC50) ER-α.

Where two headings read alike, the source gives them in different places. Bounds are passed on as bounds.

Sequence of ER-β (Q92731 whole entry, species assumed): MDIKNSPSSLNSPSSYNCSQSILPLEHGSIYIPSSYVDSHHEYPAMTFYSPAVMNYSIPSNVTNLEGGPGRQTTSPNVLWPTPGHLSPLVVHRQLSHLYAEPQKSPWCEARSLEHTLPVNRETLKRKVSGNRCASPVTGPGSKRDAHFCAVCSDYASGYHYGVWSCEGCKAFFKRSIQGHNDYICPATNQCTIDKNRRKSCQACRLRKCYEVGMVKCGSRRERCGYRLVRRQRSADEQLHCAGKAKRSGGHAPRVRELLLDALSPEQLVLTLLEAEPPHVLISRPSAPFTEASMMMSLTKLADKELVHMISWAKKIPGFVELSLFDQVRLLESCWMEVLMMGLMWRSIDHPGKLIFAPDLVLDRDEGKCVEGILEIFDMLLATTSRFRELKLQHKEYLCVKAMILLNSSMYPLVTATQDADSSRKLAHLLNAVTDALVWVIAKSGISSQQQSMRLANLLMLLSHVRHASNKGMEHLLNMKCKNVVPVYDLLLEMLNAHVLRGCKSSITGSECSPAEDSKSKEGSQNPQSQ

Take `C[C@@H]1Cc2cc(O)ccc2[C@H]2CC[C@]3(C)/C(=C/COC[C@@H](C)N(C)C)CC[C@H]3[C@H]12`: the IC50 in assay [1] (Homo sapiens) turned out to be 9.2 µM. In the case of `C[C@@H]1Cc2cc(O)ccc2[C@H]2CC[C@]3(C)/C(=C/COCCNC4CC4)CC[C@H]3[C@H]12`, the IC50 in assay [1] (Homo sapiens) stood at 10.2 µM. In the case of `CN(C)CCOCC=C1CCC2C3CCc4cc(O)ccc4C3CCC12C.O=C(O)C=CC(=O)O` (stereo not drawn) [fumerate salt], the “Activity of salt (data not provided)” value in assay [2] is recorded as “found to have activity”. Turning to `C[C@@H]1Cc2cc(O)ccc2[C@H]2CC[C@]3(C)/C(=C/COCCN4CCCCC4)CC[C@H]3[C@H]12`, in assay [1] (Homo sapiens), the IC50 came out at 15 µM. As for `O=C(c1ccc(OCCN2CCCCC2)cc1)c1c(-c2ccc(O)cc2)sc2cc(O)ccc12` [Raloxifene, reference compound], the IC50 in assay [1] (Homo sapiens) is above 20 µM. Turning to `C[C@@H]1Cc2cc(O)ccc2[C@H]2CC[C@]3(C)/C(=C/COCCN(C)C)CC[C@H]3[C@H]12` [Compound (1)], the IC50 in assay [3] came to 0.0867 ± 0.0133 µM; in assay [4] it was 0.00156 ± 0.00042 µM; in assay [1] (Homo sapiens) it was 0.8 µM.

For `CN(C)CCOCC=C1CCC2C3CCc4cc(O)ccc4C3CCC12C.Cl` (stereo not drawn) [chloride salt], the “Activity of salt (data not provided)” value in assay [2] is listed as “found to have activity”. For the molecule `CC/C(=C(\c1ccc(O)cc1)c1ccc(OCCN(C)C)cc1)c1ccccc1` [OH-Tamoxifen, reference compound], in assay [1], the IC50 was above 20 µM. Consider `C[C@]12CC[C@@H]3c4ccc(O)cc4C[C@@H](CCCCCCCCC[S+]([O-])CCCC(F)(F)C(F)(F)F)[C@H]3[C@@H]1CC[C@@H]2O` (stereo partly drawn) [ICI-182780, reference compound], for which the IC50 in assay [1] (Homo sapiens) was above 20 µM. As to `C[C@@H]1Cc2cc(O)ccc2C2CC[C@]3(C)/C(=C/COCCN4CCCC4)CCC3C21` (stereo partly drawn), the IC50 in assay [1] (Homo sapiens) was 6.9 µM.
